Test results taken from patent US12138256B2, “Treatment of cardiopulmonary disorders” (Bayer Aktiengesellschaft, priority 2021, dated 2024).
Like-named read-outs stand apart in the source and are kept apart here.

Legend:
[1] = Protein binding, minipig plasma (fraction unbound); assay type: in vitro ADME
Description: The distribution of a test substance between Transil® (phosphatidylcholine lipid bilayers immobilized on silica beads) and plasma is a characteristic feature of any pharmaceutical compound and is dependent on its extent of binding to plasma proteins. By comparing the distribution between Transil® and buffer with the distribution between Transil® and plasma of any species of interest, the unbound fraction in the plasma of the respective animal species can be calculated in vitro. The respective plasma and buffer concentrations were determined via a radioactivity analysis. A detailed description of the method and its validation was published by Schuhmacher et al. (2).

PAH minipig model = assay: Deposited lung dose (absorbing filters) in PAH minipig model and prediction of human dose and duration of effect; assay type: in vivo, Göttingen minipig
Protocol: The anesthetized thromboxane A2 challenged PAH-minipig model (see experimental part C-2.1) is considered to be the most relevant and sensitive model for the prediction of the human minimal effective and effective doses (MED, ED). To determine effective LDs, experiments in minipigs were repeated with the difference that absorbing filters were attached at the end of the tubes to determine the deposited lung dose. […] Assuming a minimal effective ND of 3 μg/kg (5% reduction in PAP) the minimal effective deposited LD is considered as 0.15 μg/kg (see FIG. 1).
The resulting lung deposited doses in the minipig of 0.15, 0.5, 1.5 and 5 μg/kg were multiplied by 60 kg to achieve the lung dose in humans. Thus, the FPD reflecting the PAP reduction for a 60 kg human are calculated to be 9, 30, 90 and 300 μg.
Thus, via a direct up-scaling from minipig, the predictive MED (5% PAP reduction) for a human based on a 60 kg body weight is calculated to be 9 μg LDD, not considering protein binding within the respiratory tract. As a surrogate for unbound concentrations, which are the likely active concentrations in the lung, we considered respective differences in fractions unbound in plasma of minipig and human. This consideration results in a minimum effective lung dose (LD) for a 60 kg participant of 41 μg LDD for the assumed 5% reduction on PAP. Consequently, the predictive minimal human effective dose is in the range from 9 μg LDD to 41 μg LDD based on a 60 kg body weight (see FIG. 2).
This translation was also conducted for effective doses (effective PAP reduction>five up to 35 percent for longer time periods up to the complete observation period of 4 hrs) based on the relative lung deposited doses in minipigs as listed in Table 2.
For DPI products, it is assumed that the fine particle dose (FPD) is basically equivalent to the human lung deposited dose.
With respect to a prediction of the duration of action for human studies comparative example 11 was compared in the PAH minipig model after inhaled application to Ventavis® (=Iloprost, 10 μg/kg nominal dose), which we used as a clinical reference. […] Therefore the duration of action is more than 6 times longer compared to Ventavis in this preclinical animal model.
In order to generate a human dose estimate, experiments in the PAH minipig model for comparative example 11 were repeated with the difference that absorbing filters were attached at the end of the tubes to determine the deposited lung dose. […] The arithmetic mean of the aerosol fraction deposited on the filters is 5% based on all results of the filter experiments, resulting in relative lung deposited doses of about 0.15 μg/kg (3 μg/kg nominal dose), 0.5 μg/kg (10 μg/kg nominal dose), 1.5 μg/kg (30 μg/kg nominal dose) and 5 μg/kg (100 μg/kg nominal dose). Assuming a minimal effective nominal dose of 3 μg/kg for a 5% reduction in PAP and a mean nebulization efficiency of 5%, the minimal effective deposited lung dose is considered as 0.15 μg/kg based on the PAH minipig model. Therefore, for a human patient of 60 kg body weight a minimal effective lung deposited dose of 9-41 μg, depending on whether or not an effect of different protein binding (see table 2.1.5) is postulated. Considering 100 μg/kg as effective dose in the minipig model, 300-1370 μg lung deposited dose is postulated as effective dose, again depending on the consideration of different interspecies protein binding.

[2] = minipig 0.15 μg/kg lung deposited (3 μg/kg nominal dose)
[3] = minipig 0.50 μg/kg lung deposited (10 μg/kg nominal dose)
[4] = minipig 1.5 μg/kg lung deposited (30 μg/kg nominal dose)
[5] = minipig 5.0 μg/kg lung deposited (100 μg/kg nominal dose)

SMILES: O=C(O)c1ccc(CCN(CCc2ccccc2OCc2ccc(-c3ccc(C(F)(F)F)cc3)cc2Cl)[C@H]2CCCc3nc(C(=O)O)ccc32)cc1 [comparative example 11, (5S)-5-{[2-(4-carboxyphenyl)ethyl][2-(2-{[3-chloro-4′-(trifluoromethyl)[biphenyl]-4-yl]methoxy}phenyl)ethyl]amino}-5,6,7,8-tetrahydroquinoline-2-carboxylic acid]
- fraction unbound ([1]; Minipig (female) plasma, read-out: Fraction unbound): 0.00348
- fraction unbound ([1]; plasma (Transil beads), minipig plasma, read-out: plasma fu (fraction unbound)): 0.00348
- minimal effective deposited lung dose (PAH minipig model; 5% reduction in PAP, mean nebulization efficiency 5%, minipig): 0.15 µg/kg
- minimal effective nominal dose (MED) (PAH minipig model; 5% reduction in PAP, nebulized liquid solution, minipig): 3 µg/kg
- predictive minimal human effective lung deposited dose (PAH minipig model; 60 kg body weight, 5% PAP reduction, without/with protein binding difference): 9 to 41 µg
- effective lung deposited doses in humans expected from minipig data (PAH minipig model; 60 kg human): 9 to 1370 µg
- supposed duration of action in humans (PAH minipig model; assumption that duration is comparable between PAH minipig model and humans): at least 6 hours
- lung deposited dose postulated as effective dose in humans (PAH minipig model; considering 100 μg/kg as effective dose in the minipig model, 60 kg): 300 to 1370 µg
- Total lung deposited dose in a 60 kg human, interspecies difference in protein binding considered (PAH minipig model; [2]): 41 µg
- Total lung deposited dose in a 60 kg human, interspecies difference in protein binding not considered (PAH minipig model; [2]): 9 µg
- Total lung deposited dose in a 60 kg human, interspecies difference in protein binding considered (PAH minipig model; [3]): 137 µg
- Total lung deposited dose in a 60 kg human, interspecies difference in protein binding not considered (PAH minipig model; [3]): 30 µg
- Total lung deposited dose in a 60 kg human, interspecies difference in protein binding considered (PAH minipig model; [4]): 410 µg
- Total lung deposited dose in a 60 kg human, interspecies difference in protein binding not considered (PAH minipig model; [4]): 90 µg
- Total lung deposited dose in a 60 kg human, interspecies difference in protein binding considered (PAH minipig model; [5]): 1370 µg
- Total lung deposited dose in a 60 kg human, interspecies difference in protein binding not considered (PAH minipig model; [5]): 300 µg
- highest effective dose in the minipig model without systemic side effects (BP reduction) (PAH minipig model; nominal dose, inhaled): 100 µg/kg
